Several values for one entry are separate records, joined by “and”; a condition that tells them apart may be missing. Equal values may be shown once.
Experiments:
c-Met receptor = test: c-Met phosphorylation in acute adult rat hippocampal slices; assay type: cell-based; settings: 30 minutes
From the text: Adult Sprague-Dawley rats (250 g+) obtained from Harlan Laboratories (Ca, USA) were anesthetized with isofluorane (Vet One™, MWI, Meridian, Id., USA) and decapitated. The brain was rapidly removed and placed into ice-chilled artificial cerebrospinal fluid (aCSF) for approximately 30 s. Both hemispheres were separated by a mid-saggital cut and both hippocampi removed. Slices were sectioned cross- and length-wise (400 μm) to ensure penetrability of the drug, using a McIlwain tissue chopper (Brinkmann, Gomshall, UK) and transferred to a gassed (95% O2/5% CO2) incubation chamber containing aCSF for 90 minutes at room temperature. […]
Protein concentration of the samples was quantified using the BCA method (Pierce, Rockford, Ill.) following the manufacturers protocol. […]

hippocampal neurons = test: Spinogenesis in mRFP-β-actin transfected dissociated hippocampal neurons; assay type: cell-based, rat; settings: 5 days
Description: (§1) Hippocampal neurons (2×10^5 cells per square cm) were cultured from P1 Sprague Dawley rats on plates coated with poly-L-lysine from Sigma (St. Louis, Mo.; molecular weight 300,000). Hippocampal neurons were maintained in Neurobasal A media from Invitrogen (Carlsbad, Calif.) supplemented with B27 from Invitrogen, 0.5 mM L-glutamine, and […] cytosine-D-arabinofuranoside from Sigma added at 2 days in vitro. Hippocampal neurons were then cultured a further 3-7 days, at which time they were either transfected or treated with various pharmacological reagents as described in (Wayman, Davare et al. 2008).
Neurons were transfected with mRFP-β-actin on day in vitro 6 (DIV6) using LipofectAMINE™ 2000 (Invitrogen) according to the manufacturer's protocol. This protocol yielded the desired 3-5% transfection efficiency thus enabling the visualization of individual neurons. Higher efficiencies obscured the dendritic arbor of individual neurons. Expression of fluorescently tagged actin allowed clear visualization of dendritic spines, as dendritic spines are enriched in actin. On DIV7 the cells were treated with vehicle (H20) or peptides (as described in the text) added to media. On DIV 12 the neurons were fixed (4% paraformaldehyde, 3% sucrose, 60 mM PIPES, 25 mM HEPES, 5 mM EGTA, 1 mM MgCl2, pH 7.4) for 20 min at room temperature and mounted. Slides were dried for at least 20 hours at 4° C. and fluorescent images were obtained with Slidebook 4.2 Digital Microscopy Software driving an Olympus IX81 inverted confocal microscope with a 60× oil immersion lens, NA 1.4 and resolution 0.280 μm Dendritic spine density was measured on primary and secondary dendrites at a distance of at least 150 μm from the soma. Five 50 μm long segments of dendrite from at least 10 neurons per data point were analyzed for each data point reported. Each experiment was repeated at least three times using independent culture preparations. Dendrite length was determined using the National Institutes of Health's Image J 1.41o program (NIH, Bethesda, Md.) and the neurite tracing program Neuron J (Meijering, Jacob et al. 2004) Spines were manually counted.
as §1, with “centimeter)” for “cm)”, “P1-2” for “P1”, “the text or figure legends.” for “(Wayman, Davare et al. 2008).”

CA1 hippocampal neurons = test: Spinogenesis in organotypic hippocampal slice cultures; assay type: cell-based, rat; settings: HGF 10 ng/ml, 48 hours, organotypic slices
Description: (§2) Hippocampi from P4 Sprague Dawley rats were cultured as previously described (Wayman, Impey et al. 2006). Briefly, 400 μm slices were cultured on (Milipore, Billerica, Mass.) for 3 days after which they were biolistically transfected with tomato fluorescent protein (TFP) using a Helios Gen Gun (BioRad, Hercules, Calif.), according to the manufacturer's protocol, to visualize dendritic arbors. Following a 24 hour recovery period slices were stimulated with vehicle (H2O), 1 pM Nle1-AngIV or Dihexa for 2 days. Slices were fixed and mounted. Hippocampal CA1 neuronal processes were imaged and measured as described above.
as §2, with “Gene” for “Gen”, “with” for “with vehicle (H2O),”

For “HGF: carrier free adult recombinant Hepatocyte Growth Factor (R and D Systems)”, the “c-Met phosphorylation vs control (aCSF) slices” value (c-Met receptor; HGF 50 ng/ml (non-saturating)) was “not statistically different from control treated slices”, the “c-Met phosphorylation vs control (aCSF) slices” value (c-Met receptor; HGF 100 ng/ml (saturating)) was “increased c-Met phosphorylation” and the mean spine numbers (hippocampal neurons; HGF 2.5 ng/ml) was 18.6 and 16.5. For the same substance, the mean spine numbers (hippocampal neurons; HGF 5 ng/ml) was 24.7, the “mean spine numbers per 50 μm dendrite length” value (hippocampal neurons; HGF 10 ng/ml) was 27.5 and 33 and 29.3 and the mean spine numbers (hippocampal neurons; HGF 20 ng/ml) was 27.0. For the same substance, the “number of spines per 50 μm dendrite length, CA1 neurons” value (CA1 hippocampal neurons) was 18.5.

From patent US8598118B2, “Hepatocyte growth factor mimics as therapeutic agents” (Washington State University, priority 2011, dated 2013)
